US11529391B2, “Reversing deficient hedgehog signaling restores deficient skeletal regeneration” (The Board of Trustees of the Leland Stanford Junior …, priority 2017, dated 2022)
“Also recorded” adds a separate entry of the source.

Tests used:
[1] = tested on: post-fracture day 7 WT mSSCs; experiment: In vitro osteogenesis of mSSCs under Hh antagonism, alizarin red staining; assay type: cell-based, mouse; details: post-fracture day 7 WT mSSCs treated in vitro
From the text: To investigate if Hh signaling is essential for mSSC-dependent osteogenesis, we antagonized Hh signaling in post-fracture day 7 WT mSSCs in vitro using XL139, a small molecule antagonist of Smo.
(§1) Cell culture. Cells were maintained in vitro in Minimum Essential Media (MEM) with 10% FBS and 1% penicillin-streptomycin (Penstrep) under 2% O2/7.5% CO2. Each plate was coated with 0.1% gelatin. Cultured cells were lifted using collagenase II buffer (Sigma-Aldrich). For mSSC colony forming assays, cells were cultured for 2 weeks and colonies were counted using phase microscopy. The cells were lifted for staining and analysis by FACS. Osteogenic differentiation medium consisted of Dulbecco's Modified Eagle Medium with 10% FBS, 100 μg/ml ascorbic acid, and 10 mM-glycerophosphate. mSSCs isolated from P3, WT, and db mice were maintained in either regular media (MEM-alpha medium with 10% FBS, 1% Penstrep) or regular media supplemented with Ihh (R&D, […]), Shh (R&D, 500 pg/mL), or PBS under 2% O2/7.5% CO2 conditions. After 7 days, cells were lifted for staining and analysis by FACS or for RNA extraction and qRT-PCR.

WT mice = experiment: Femoral fracture healing after Hh antagonism, Mechanical Strength Testing (MST); assay type: in vivo, mouse; details: oral gavage immediately after injury, post-fracture week 4, versus untreated
Procedure: (§2) To verify that Hh antagonism impairs fracture repair in vivo, we administered XL139 to WT mice via oral gavage immediately after injury and assessed healing femur strength at post-fracture week 4 using MST.
Femoral fractures. Ten-week old mice were anesthetized with aerosolized isoflurane. Analgesia was administered and the surgical site was prepared prior to skin incision. A medial parapatellar incision was created. The patella was dislocated laterally to expose the femoral condyles. The medullary cavity was reamed using a 25 to 23 G×⅝-inch regular bevel needle (BD) prior to insertion of an intramedullary pin of equal diameter into the medullary cavity. A transverse, middiaphyseal fracture was made using scissors. The pin remained in situ to provide relative stability during healing. The patella was relocated, muscles were reapproximated, and the skin was closed using a 6/0 nylon suture. Animals were radiographed to verify fracture alignment and assess fracture fixation. Animals with fracture displacement were excluded. Pin diameter was adjusted according to femoral cavity lumen diameter to minimize migration.
Mechanical Strength Testing (MST). MST was performed using a delaminator run by R.H. Dauskardt laboratory at Stanford University. […] The maximum load (N) to fracture was recorded (FIG. 9).

mSSCs and BCSPs = experiment: FACS count of mSSCs and BCSPs in calluses after Hh antagonism; assay type: in vivo, mouse; details: post-fracture day 7 calluses of treated versus untreated WT mice
Procedure: as §2
Isolation of skeletal progenitor cells. Uninjured femora and fractured femora were harvested at post-fracture days 3, 7, 10, 14, 21, and 28. Fracture calluses were dissected using microscopy. Tissues were crushed with mortar and pestle in collagenase buffer (2.2 mg/ml collagenase, DNase, 1000×1 M CaCl2, 100×p188, 50×1 M Hepes, m199 solvent), and heated to 37° C. for 10 min to activate collagenase. Each sample underwent 3 serial digestions at 37° C. for 25 minutes under gentle agitation. Dissociated cells were filtered through a 40 μm nylon mesh and washed in FACS buffer (2% fetal bovine serum in PBS). Each sample was pelleted at 200 g at 4° C. and resuspended in FACS buffer. Then, each sample was layered onto a histopaque gradient prior to centrifugation at 1400 rpm for 15 minutes at room temperature with zero acceleration. The cloudy interphase was aspirated, washed with FACS buffer, and centrifuged. The cells were stained with fluorochrome-conjugated antibodies against CD45, Ter119, Tie2, αv-integrin, Ly 51, CD105, Thy 1.1, and Thy 1.2 for purification by flow cytometry. Cells were sorted twice (once on “yield,” then on “purity”) to increase purity (BD FACS Aria).

Ihh expression = experiment: qRT-PCR of Ihh expression in mSSC and BCSP cultures in supplemented media; assay type: cell-based, mouse
Procedure: To determine if high levels of glucose or TNFα could directly repress Hh expression in skeletal niches, we cultured FACS-sorted mSSCs and BCSPs from uninjured P3 WT femora in glucose-supplemented, TNFα-supplemented, or control media for 48 hours. […] Furthermore, neutralization of TNFα with anti-TNFα antibodies restored Ihh expression levels in mSSCs cultured in dbLR serum (FIG. 15).
as §1
Quantitative reverse transcription polymerase chain reaction (qRT-PCR). RNA was isolated from cells using the RNeasy Mini kit (Qiagen) as per manufacturer's instructions. Reverse transcription was performed and gene expression was examined by qRT-PCR using the Applied biosystems Prism 7900HT sequence detection system (Applied Biosystems) and SYBR Green PCR Master Mix (Applied Biosystems). All values were normalized using glyceraldehyde 3-phosphate dehydrogenase for mouse samples and using beta-actin for human samples. Specific primer sequences for genes of interest were obtained from PrimerBank.

CNCc1ccc(C)c(NC(=O)c2ccc(Nc3nc(-c4ccccc4)c4ccccc4n3)cc2)c1 [XL139]
osteogenic potential of mSSCs (alizarin red staining) [1]: dose-dependent reduction; also recorded: reduces | healing femur strength (MST) (WT mice): reduced significantly | number of mSSCs and BCSPs (mSSCs and BCSPs): highly significant reduction

TNFα
dose dependence of repression of Ihh expression in BCSPs (Ihh expression; BCSP-derived cultures from uninjured P3 mice): dose dependent; also recorded: dose-dependent | Ihh expression (qRT-PCR) in BCSP cultures (Ihh expression; BCSPs from uninjured P3 WT femora, supplemented media 48 hours versus control media): significantly reduced; also recorded: reduces | Ihh expression (qRT-PCR) in mSSC cultures (Ihh expression; mSSCs from uninjured P3 WT femora, supplemented media 48 hours versus control media): significantly reduced; also recorded: significantly diminishes
